Measured values published in ChEMBL document CHEMBL1799982, “Synthesis, protein kinase inhibitory potencies, and in vitro antiproliferative activities of meridianin derivatives” (J Med Chem, 2011).

Experiments:
MCF7 = assay: Antiproliferative activity against human MCF7 cells after 48 hrs by resazurin reduction test; details: MCF7, 48 h
[1] = molecular target: Dual specificity tyrosine-phosphorylation-regulated kinase 1A (Rattus norvegicus, UniProt Q63470); assay: Inhibition of rat recombinant GST-tagged DYRK1A using myelin protein as substrate and [gamma32]-ATP after 30 mins by scintillation counting
[2] = molecular target: Glycogen synthase kinase-3 (Sus scrofa, UniProt B2LUN4+I6LNT8); assay: Inhibition of pig brain GSK-3alpha/beta using YRRAAVPPSPSLSRHSSPHQSpEDEEE as substrate
[3] = molecular target: Dual specificity protein kinase CLK1 (Homo sapiens, UniProt P49759)
Dual specificity protein kinase CLK1, sequence (P49759 whole entry): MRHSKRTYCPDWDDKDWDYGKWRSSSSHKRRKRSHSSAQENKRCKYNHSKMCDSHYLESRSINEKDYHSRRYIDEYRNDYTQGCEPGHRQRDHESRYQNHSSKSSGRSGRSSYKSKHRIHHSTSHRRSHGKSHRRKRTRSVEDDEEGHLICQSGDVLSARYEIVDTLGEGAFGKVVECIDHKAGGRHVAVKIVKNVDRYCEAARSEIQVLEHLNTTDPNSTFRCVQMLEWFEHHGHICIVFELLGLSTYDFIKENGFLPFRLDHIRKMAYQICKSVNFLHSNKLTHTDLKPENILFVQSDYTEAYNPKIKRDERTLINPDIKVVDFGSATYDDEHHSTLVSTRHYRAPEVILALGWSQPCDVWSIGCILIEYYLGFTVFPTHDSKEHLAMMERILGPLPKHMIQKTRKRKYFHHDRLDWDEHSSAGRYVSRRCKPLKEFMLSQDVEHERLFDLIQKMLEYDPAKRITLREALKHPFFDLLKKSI

PA-1 = assay: Antiproliferative activity against human PA1 cells after 48 hrs by resazurin reduction test; type: functional, cell-based; details: PA-1, 48 h
IMR-32 = assay: Antiproliferative activity against human IMR32 cells by MTS reduction assay
HT-22 = assay: Antiproliferative activity against mouse HT22 cells by MTS reduction assay
PC-3 = assay: Antiproliferative activity against human PC3 cells after 48 hrs by resazurin reduction test; details: PC-3, 48 h
SH-SY5Y = assay: Antiproliferative activity against human SH-SY5Y cells by MTS reduction assay
[4] = Inhibition of pig brain CK1 delta/epsilon using RRKHAAIGpSAYSITA as substrate; design: species or system Sus scrofa
[5] = molecular target: Cyclin-dependent kinase 5/CDK5 activator 1 (Homo sapiens, UniProt Q00535); assay: Inhibition of human recombinant CDK5/p25 using Histone H1 and [gamma32]-ATP after 30 mins by scintillation counting; type: protein-complex assay
Cyclin-dependent kinase 5/CDK5 activator 1, sequence (Q00535 whole entry): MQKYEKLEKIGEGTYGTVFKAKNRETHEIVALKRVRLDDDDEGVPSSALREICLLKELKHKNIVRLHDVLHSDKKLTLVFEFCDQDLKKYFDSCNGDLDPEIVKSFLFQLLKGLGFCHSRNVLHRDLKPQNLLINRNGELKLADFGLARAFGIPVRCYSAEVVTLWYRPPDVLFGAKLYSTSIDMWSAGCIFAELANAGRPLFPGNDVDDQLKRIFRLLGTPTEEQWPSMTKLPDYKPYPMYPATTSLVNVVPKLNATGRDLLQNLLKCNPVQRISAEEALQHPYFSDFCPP
Cyclin-dependent kinase 5/CDK5 activator 1, sequence (Q15078 whole entry, further chain): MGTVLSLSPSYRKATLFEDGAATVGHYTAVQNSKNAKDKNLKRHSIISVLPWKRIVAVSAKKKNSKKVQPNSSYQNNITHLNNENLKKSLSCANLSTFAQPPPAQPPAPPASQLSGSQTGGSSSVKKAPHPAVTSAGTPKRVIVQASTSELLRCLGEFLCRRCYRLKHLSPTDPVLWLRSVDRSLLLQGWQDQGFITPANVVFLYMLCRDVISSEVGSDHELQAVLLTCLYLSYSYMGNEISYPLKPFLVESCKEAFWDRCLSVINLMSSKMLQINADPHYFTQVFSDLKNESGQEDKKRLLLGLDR

[6] = Antiproliferative activity against human primary fibroblasts after 48 hrs by resazurin reduction test; type: cell-based; details: Fibroblast
DU-145 = assay: Antiproliferative activity against human DU145 cells after 48 hrs by resazurin reduction test; type: functional, cell-based; details: DU-145, 48 h

Row | SMILES | IC50 (MCF7) | IC50 [1] | IC50 [2] | IC50 [3] | IC50 (PA-1) | IC50 (IMR-32) | IC50 (HT-22) | IC50 (PC-3) | IC50 (SH-SY5Y) | IC50 [4] | IC50 [5] | IC50 [6] | IC50 (DU-145)
1 | Nc1ncc(-c2ccc(C(F)(F)F)cc2)c(-c2c[nH]c3ccc(Br)cc23)n1 | > 10 µM | > 10 µM | 2 µM | > 10 µM | > 10 µM | > 10 µM | > 10 µM | > 10 µM | > 10 µM | > 10 µM | > 10 µM |  | 
2 | Nc1ncc(-c2ccc(C(F)(F)F)cc2)c(-c2c[nH]c3cccc(Br)c23)n1 | > 10 µM | 1.85 µM | 1 µM | 1.3 µM | > 10 µM | > 10 µM | > 10 µM | > 10 µM | > 10 µM | > 10 µM | 4.7 µM |  | 
3 | Nc1ncc(I)c(-c2c[nH]c3ccc(Br)cc23)n1 | > 25 µM | 0.33 µM | 2.1 µM | 0.18 µM | > 10 µM | 13 µM | 8 µM | > 10 µM | 23 µM | 0.77 µM | 1.8 µM |  | 
4 | Nc1ncc(I)c(-c2c[nH]c3ccccc23)n1 | 17 µM | 0.066 µM | 3.7 µM | 0.03 µM | 3.3 µM | 10 µM | 7.3 µM | 10.6 µM | 7.5 µM | 0.9 µM | 1.4 µM | 8 µM | 5 µM
5 | COc1cccc(-c2cnc(N)nc2-c2c[nH]c3cccc(Br)c23)c1 | > 10 µM | 0.81 µM | 1.4 µM | 1.3 µM | > 10 µM | > 10 µM | > 10 µM | > 10 µM | > 10 µM | > 10 µM | 6 µM |  | 
6 | CC(=O)c1ccc(-c2cnc(N)nc2-c2c[nH]c3c(Br)cccc23)cc1 | > 10 µM | 0.29 µM | 4.5 µM | 0.38 µM | 0.8 µM | > 10 µM | > 10 µM | 3.6 µM | > 10 µM | > 10 µM | > 10 µM | 18.4 µM | 5.7 µM
7 | CC(=O)c1ccc(-c2cnc(N)nc2-c2c[nH]c3cccc(Br)c23)cc1 | > 10 µM | 2.1 µM |  |  | > 10 µM | > 10 µM | > 10 µM | > 10 µM | > 10 µM | > 10 µM | 7 µM |  | 
8 | Nc1nccc(-c2c[nH]c3cc(Br)ccc23)n1 [MERIDIANIN D] | > 25 µM | 0.13 µM | 7.2 µM | 0.12 µM |  | > 25 µM | > 25 µM |  | > 25 µM | 3.8 µM | 1.2 µM |  | 
9 | Nc1nccc(-c2c[nH]c3ccccc23)n1 | > 25 µM | 0.7 µM | > 10 µM | 0.53 µM |  | > 25 µM | > 25 µM |  | > 25 µM | 6.2 µM | 5 µM |  | 
10 | CC(=O)Nc1ccc(-c2cnc(N)nc2-c2c[nH]c3cc(Br)ccc23)cc1 | > 10 µM | 3.1 µM | 1.6 µM | 0.53 µM | 12 µM | > 10 µM | > 10 µM | 14 µM | > 10 µM | 8.1 µM | > 10 µM | 24 µM | 20 µM
11 | Nc1nccc(-c2c[nH]c3cc([N+](=O)[O-])ccc23)n1 | > 25 µM | 1.1 µM | > 10 µM | 0.38 µM |  | > 25 µM | > 25 µM |  | > 25 µM | 6.3 µM | > 10 µM |  | 
12 | CC(=O)Nc1ccc(-c2cnc(N)nc2-c2c[nH]c3cccc(Br)c23)cc1 | > 10 µM | > 10 µM | > 10 µM | > 10 µM | > 10 µM | > 10 µM | > 10 µM | > 10 µM | > 10 µM | > 10 µM | > 10 µM |  | 
13 | Nc1ncc(I)c(-c2c[nH]c3c(Br)cccc23)n1 | 17 µM | 0.039 µM | 4 µM | 0.042 µM | 2 µM | 7.3 µM | 12 µM | 15 µM | 8 µM | 1.6 µM | 2.1 µM | 10 µM | 4.2 µM
14 | Nc1ccc2[nH]cc(-c3nc(N)ncc3I)c2c1 | > 10 µM | 2.3 µM | > 10 µM | 0.61 µM | 11 µM | > 10 µM | > 10 µM | 48 µM | > 10 µM | 0.27 µM | > 10 µM | 44 µM | 40 µM
15 | Nc1ncc(-c2ccc(C(F)(F)F)cc2)c(-c2c[nH]c3cc(Br)ccc23)n1 | > 10 µM | > 10 µM | 6.1 µM | > 10 µM | > 10 µM | > 10 µM | > 10 µM | > 10 µM | > 10 µM | > 10 µM | > 10 µM |  | 
16 | CC(=O)Nc1ccc(-c2cnc(N)nc2-c2c[nH]c3ccc(Br)cc23)cc1 | > 10 µM | 4.15 µM | 0.4 µM | 0.75 µM | > 10 µM | > 10 µM | > 10 µM | > 10 µM | > 10 µM | 2.1 µM | 6.8 µM |  | 
17 | Nc1nccc(-c2c[nH]c3cccc(Br)c23)n1 | > 25 µM | 0.85 µM | > 10 µM | 1.4 µM |  | > 25 µM | > 25 µM |  | > 25 µM | 5.3 µM | 10 µM |  | 
18 | CC(=O)Nc1ccc(-c2cnc(N)nc2-c2c[nH]c3c(Br)cccc23)cc1 | > 25 µM | 0.19 µM | 2.2 µM | 0.087 µM | 3 µM | 25 µM | > 25 µM | 5 µM | 25 µM | > 10 µM | 7.5 µM | 8 µM | 13 µM
19 | CC(=O)c1ccc(-c2cnc(N)nc2-c2c[nH]c3cc(Br)ccc23)cc1 | 1 µM | > 10 µM | 2 µM | 1.8 µM | < 0.6 µM | 0.33 µM | 2.5 µM | < 0.6 µM | 0.4 µM | > 10 µM | > 10 µM | < 0.6 µM | < 0.6 µM
20 | COc1cccc(-c2cnc(N)nc2-c2c[nH]c3cc(Br)ccc23)c1 | > 25 µM | 8.2 µM | 4.5 µM | 2.3 µM | > 10 µM | 18 µM | 16 µM | > 10 µM | > 25 µM | 3.2 µM | > 10 µM |  | 
21 | Nc1ncc(I)c(-c2c[nH]c3c(N)cccc23)n1 | 20 µM | 0.11 µM | 4.4 µM | 0.026 µM | 2.5 µM | 4 µM | 12 µM | 14 µM | 9 µM | 1.1 µM | 0.66 µM | 10.6 µM | 6.1 µM
22 | Nc1nccc(-c2c[nH]c3c(Br)cccc23)n1 | > 25 µM | 0.068 µM | > 10 µM | 0.065 µM |  | 25 µM | > 25 µM |  | > 25 µM | 4.2 µM | 3.1 µM |  | 
23 | Nc1nccc(-c2c[nH]c3c([N+](=O)[O-])cccc23)n1 | > 25 µM | 0.085 µM | > 10 µM | 0.07 µM |  | > 25 µM | > 25 µM |  | > 25 µM | 10 µM | 6.3 µM |  | 
24 | Nc1nccc(-c2c[nH]c3ccc(Br)cc23)n1 [MERIDIANIN C] | 24 µM | 0.33 µM | 1.3 µM | 0.22 µM |  | > 25 µM | 9.3 µM |  | > 25 µM | 7.3 µM | 1.2 µM |  | 
25 | COc1cccc(-c2cnc(N)nc2-c2c[nH]c3ccc(Br)cc23)c1 | > 25 µM | 5.65 µM | 1.2 µM | 2.5 µM | > 10 µM | 20 µM | 18 µM | > 10 µM | > 25 µM | 2.2 µM | 7.6 µM |  | 
26 | Nc1ncc(I)c(-c2c[nH]c3cccc(Br)c23)n1 | > 10 µM | 1.45 µM | > 10 µM | 2.3 µM | > 10 µM | > 10 µM | > 10 µM | > 10 µM | > 10 µM | 1.3 µM | > 10 µM |  | 
27 | CC(=O)c1ccc(-c2cnc(N)nc2-c2c[nH]c3ccc(Br)cc23)cc1 | 4.2 µM | 8.45 µM | 0.68 µM | 1.6 µM | > 10 µM | 13 µM | 10 µM | > 10 µM | > 25 µM | > 10 µM | > 10 µM |  | 
